Data published in patent US20070049564A1 (Wyeth, priority 2005, published 2007).
≈ marks a conversion by molar mass, not a printed value. Like-named read-outs stand apart in the source and are kept apart here.

Tests used:
E. coli #311 = assay: In vivo activity (oral, iv; ED50) against E. coli in mice; settings: for ED50: Escherichia coli
Excerpt: . […] Smith and E. Coli #311 in mammals.
Results of the tests (MIC, oral and IV) are list in Table 7.

Staph. aureus Smith [1] = assay: In vitro activity (MIC) against Staph. aureus Smith; type: cell-based; settings: for MIC: Staphylococcus aureus
E. coli [2] = assay: Range of MIC for E. coli strains; settings: for MIC: Escherichia coli
Staph. = assay: Range of MIC for Staph. strains, including MRSA; settings: for MIC: Staphylococcus aureus
Staph. aureus Smith [3] = assay: In vivo activity (oral, iv; ED50) against Staph. aureus Smith in mice
Method: Representative examples of compounds of Formula I were tested for the oral efficacy using S. aureus Smith in mice.

E. coli [4] = assay: In vitro activity (MIC) against E. coli (Table 7); type: cell-based
[5] = test system: E. coli, tet(A-D), efflux; assay: In vitro activity (MIC), strain groups; settings: E. coli, tet(A-D), efflux; Mouse serum
Method: (§1) Antimicrobial susceptibility testing. The in vitro activities of the antibiotics are determined by the broth microdilution method as recommended by the National Committee for Clinical Laboratory Standards (NCCLS) (1). Mueller-Hinton II broth (MHBII)(BBL Cockeysville, Md.) is the medium employed in the testing procedures. Microtiter plates containing serial dilutions of each antimicrobial agent are inoculated with each organism to yield the appropriate density (10^5 CFU/ml) in a 100 μl final volume. The plates are incubated for 18-22 hours at 35° C. in ambient air.
(§2) Representative compounds were first incubated in mouse serum for an hour prior to the in vitro testing against a panel of selected gram-positive and gram-negative bacteria strains. All compounds were also pre-incubated in water for an hour prior to testing as control. Representative compounds of Formula I were incubated in human serum prior to MIC determination.

[6] = test system: E. coli, tet (M,S,O) Tet (M); assay: In vitro activity (MIC), strain groups; settings: E. coli, tet (M,S,O) Tet (M)
Method: as §1
(§3) Presented in Tables I-XIII are representative compounds of Formula I which were evaluated against a panel of 40 selected gram-positive and gram-negative bacteria strains by pre-incubation in water, mouse serum or human serum. Representative compounds were first incubated in mouse serum for an hour prior to the in vitro testing against a panel of selected gram-positive and gram-negative bacteria strains. All compounds were also pre-incubated in water for an hour prior to testing as control. Representative compounds of Formula I were incubated in human serum prior to MIC determination.

S. aureus, tet (M) = assay: In vitro activity (MIC), strain groups
Method: as §1, §2

Enterococcus spp. = assay: In vitro activity (MIC), strain groups; settings: Enterococcus spp.
Method: as §1, §3

Streptococcus spp. = assay: In vitro activity (MIC), strain groups; settings: Streptococcus spp.
Method: as §1, §3

[7] = single intravenous dose (SIV), read-out: ED50 E. coli #311 SIV
[8] = single oral dose (SOD), read-out: ED50 E. coli #311 SOD
[9] = 20 h, read-out: Range of MIC, E. coli (Mouse Serum)
[10] = read-out: Minimum inhibitory concentration (MIC), E. coli (Human Serum)
[11] = MRSA, read-out: Range of MIC, Staph (Mouse Serum)
[12] = MRSA, read-out: Range of MIC, Staph (Water)
[13] = read-out: Minimum inhibitory concentration (MIC), Staph (Human Serum)
[14] = read-out: Minimum inhibitory concentration (MIC), Staph (Water)
[15] = Staphylococcus aureus, in Mus musculus, iv, read-out: ED50 SIV (Staph aureus Smith)
[16] = Staphylococcus aureus, in Mus musculus, po, read-out: ED50 SOD (Staph aureus Smith)
[17] = Staphylococcus aureus, in Mus musculus, po, read-out: ED50 Staph Smith SOD
[18] = iv, read-out: ED50 Staph Smith SIV
[19] = read-out: Minimum inhibitory concentration (MIC), E. coli (water)
[20] = read-out: Range of MIC, E. coli (Water)
[21] = read-out: Minimum inhibitory concentration (MIC), E. coli (mouse serum)
[22] = MRSA, read-out: Minimum inhibitory concentration (MIC), Staph. (mouse serum)
[23] = MRSA, read-out: Minimum inhibitory concentration (MIC), Staph. (water)

Compound: CCCCCCC(=O)OCOC(=O)N(CCC)CC(=O)Nc1cc(N(C)C)c2c(c1O)C(=O)C1=C(O)[C@]3(O)C(=O)C(C(N)=O)=C(O)[C@@H](N(C)C)[C@@H]3C[C@@H]1C2 [Example 19, ({[(2-{[(5aR,6aS,7S,10aS)-9-(aminocarbonyl)-4,7-bis(dimethylamino)-1,8,10a,11-tetrahydroxy-10,12-dioxo-5,5a,6,6a,7,10,10a,12-octahydrotetracen-2-yl]amino}-2-oxoethyl)(propyl)amino]carbonyl}oxy)methyl heptanoate]
- ED50 (E. coli #311; [7]): > 2 mg/kg
- ED50 (E. coli #311; [8]): > 32 mg/kg
- MIC (Staph. aureus Smith [1]; Table 8): 1 µg/mL (≈ 1.32 µM)
- MIC (E. coli [2]; [9]): 0.5 to 2 µg/mL (≈ 0.66 to 2.64 µM)
- MIC (E. coli [2]; [10]): 8 to 32 µg/mL (≈ 10.6 to 42.2 µM)
- MIC (E. coli [2]; read-out: Range of MIC, E. coli (mouse serum)): 0.5 to 2 µg/mL (≈ 0.66 to 2.64 µM)
- MIC (Staph.; [11]): 0.5 to 4 µg/mL (≈ 0.66 to 5.28 µM)
- MIC (Staph.; [12]): 1 to 8 µg/mL (≈ 1.32 to 10.6 µM)
- MIC (Staph.; MRSA, read-out: Range of MIC, Staph. (mouse serum)): 0.5 to 4 µg/mL (≈ 0.66 to 5.28 µM)
- MIC (Staph.; MRSA, read-out: Range of MIC, Staph. (water)): 1 to 8 µg/mL (≈ 1.32 to 10.6 µM)
- MIC (Staph.; [13]): 0.12 to 1 µg/mL (≈ 0.158 to 1.32 µM)
- MIC (Staph.; [14]): 0.25 to 4 µg/mL (≈ 0.33 to 5.28 µM)
- ED50 (Staph. aureus Smith [3]; [15]): 0.31 mg/kg
- ED50 (Staph. aureus Smith [3]; [16]): 8.05 mg/kg
- ED50 (Staph. aureus Smith [3]; [17]): 8.05 mg/kg
- ED50 (Staph. aureus Smith [3]; [18]): 0.31 mg/kg

Compound: CN(C)c1cc(NC(=O)CN(C(=O)OCOC(=O)CC2CCCC2)C(C)(C)C)c(O)c2c1C[C@H]1C[C@H]3[C@H](N(C)C)C(O)=C(C(N)=O)C(=O)[C@@]3(O)C(O)=C1C2=O [Example 54, ({[(2-{[(5aR,6aS,7S,10aS)-9-(aminocarbonyl)-4,7-bis(dimethylamino)-1,8,10a,11-tetrahydroxy-10,12-dioxo-5,5a,6,6a,7,10,10a,12-octahydrotetracen-2-yl]amino}-2-oxoethyl)(tert-butyl)amino]carbonyl}oxy)methyl cyclopentylacetate]
- ED50 (E. coli #311; [7]): 3.72 mg/kg
- ED50 (E. coli #311; single intravenous dose, mice, Table 7, read-out: ED50 SIV (E. coli)): 2.16 mg/kg
- ED50 (E. coli #311; [8]): > 32 mg/kg
- ED50 (E. coli #311; single oral dose, mice, Table 7, read-out: ED50 SOD (E. coli)): 29.2 mg/kg
- MIC (Staph. aureus Smith [1]; Table 6): 0.5 µg/mL (≈ 0.649 µM)
- MIC (E. coli [4]; Escherichia coli): > 64 µg/mL
- MIC (E. coli [2]; [9]): 0.5 to 1 µg/mL (≈ 0.649 to 1.3 µM)
- MIC (E. coli [2]; [10]): 16 to 32 µg/mL (≈ 20.8 to 41.6 µM)
- MIC (E. coli [2]; [19]): > 64 µg/mL
- MIC (E. coli [2]; [20]): > 64 µg/mL
- MIC (Staph.; [11]): 0.5 to 2 µg/mL (≈ 0.649 to 2.6 µM)
- MIC (Staph.; [12]): 1 to 4 µg/mL (≈ 1.3 to 5.2 µM)
- MIC (Staph.; [13]): 0.5 to 2 µg/mL (≈ 0.649 to 2.6 µM)
- MIC (Staph.; [14]): 1 to 4 µg/mL (≈ 1.3 to 5.2 µM)
- ED50 (Staph. aureus Smith [3]; [15]): 0.83 mg/kg
- ED50 (Staph. aureus Smith [3]; [16]): 8.4 mg/kg
- ED50 (Staph. aureus Smith [3]; [17]): > 16 mg/kg
- ED50 (Staph. aureus Smith [3]; [18]): 1.17 mg/kg

Compound: [({[(5aR,6aS,7S,10aS)-9-(aminocarbonyl)-4,7-bis(dimethylamino)-1,8,10a,11-tetrahydroxy-10,12-dioxo-5,5a,6,6a,7,10,10a,12-octahydrotetracen-2-yl]amino}carbonyl)oxy]methyl 4-tert-butylbenzoate [Example 87]
- ED50 SIV (E. coli) (E. coli #311; single intravenous dose, mice, Table 7): 3.6 mg/kg
- ED50 SOD (E. coli) (E. coli #311; single oral dose, mice, Table 7): 60.4 mg/kg
- MIC (Staph aureus Smith) (Staph. aureus Smith [1]; Table 6): 32 µg/mL
- MIC (E. coli) (E. coli [4]): >64 µg/mL
- Range of MIC, E. coli (Water) (E. coli [2]; Water, Table 1): >64 µg/mL
- In vitro activity (MIC) [5]: 0.25-0.5
- In vitro activity (MIC) ([6]; Human serum): >64
- In vitro activity (MIC) ([6]; Mouse serum): 0.25-0.5
- In vitro activity (MIC) ([6]; water): >64
- In vitro activity (MIC) (S. aureus, tet (M); Human serum): 16
- In vitro activity (MIC) (S. aureus, tet (M); Mouse serum): 0.5
- In vitro activity (MIC) (S. aureus, tet (M); water): 64
- In vitro activity (MIC) (Enterococcus spp.; Human serum): 0.25-8
- In vitro activity (MIC) (Enterococcus spp.; Mouse serum): 0.12-0.5
- In vitro activity (MIC) (Enterococcus spp.; water): 0.25-32
- In vitro activity (MIC) (Streptococcus spp.; Human serum): 1-2
- In vitro activity (MIC) (Streptococcus spp.; water): 0.5-2
- Range of MIC, Staph (Mouse Serum) (Staph.; Mouse Serum, including MRSA, Table 1): 32 to 64 µg/mL
- Range of MIC, Staph (Water) (Staph.; Water, including MRSA, Table 1): >64 µg/mL
- ED50 SIV (Staph aureus Smith) (Staph. aureus Smith [3]; single intravenous dose, mice, Table 6): 0.83 mg/kg
- ED50 SOD (Staph aureus Smith) (Staph. aureus Smith [3]; single oral dose, mice, Table 6): 12.82 mg/kg

Compound: CCCCN(CC(=O)Nc1cc(N(C)C)c2c(c1O)C(=O)C1=C(O)[C@]3(O)C(=O)C(C(N)=O)=C(O)[C@@H](N(C)C)[C@@H]3C[C@@H]1C2)C(=O)OCOC(=O)CC1CCCC1 [Example 38, ({[(2-{[(5aR,6aS,7S,10aS)-9-(aminocarbonyl)-4,7-bis(dimethylamino)-1,8,10a,11-tetrahydroxy-10,12-dioxo-5,5a,6,6a,7,10,10a,12-octahydrotetracen-2-yl]amino}-2-oxoethyl)(butyl)amino]carbonyl}oxy)methyl cyclopentylacetate]
- MIC (Staph. aureus Smith [1]; Table 8): 2 µg/mL (≈ 2.6 µM)
- MIC (E. coli [2]; [9]): 0.5 to 4 µg/mL (≈ 0.649 to 5.2 µM)
- MIC (E. coli [2]; [21]): 0.5 to 4 µg/mL (≈ 0.649 to 5.2 µM)
- MIC (Staph.; [22]): 0.5 to 2 µg/mL (≈ 0.649 to 2.6 µM)
- MIC (Staph.; [23]): 1 to 8 µg/mL (≈ 1.3 to 10.4 µM)
- MIC (Staph.; [11]): 0.5 to 2 µg/mL (≈ 0.649 to 2.6 µM)
- MIC (Staph.; [12]): 1 to 8 µg/mL (≈ 1.3 to 10.4 µM)
- ED50 (Staph. aureus Smith [3]; [15]): 0.6 mg/kg
- ED50 (Staph. aureus Smith [3]; [16]): 5.3 mg/kg
- ED50 (Staph. aureus Smith [3]; [17]): 5.3 mg/kg
- ED50 (Staph. aureus Smith [3]; [18]): 0.6 mg/kg

Compound: CCCCN(CC(=O)Nc1cc(N(C)C)c2c(c1O)C(=O)C1=C(O)[C@]3(O)C(=O)C(C(N)=O)=C(O)[C@@H](N(C)C)[C@@H]3C[C@@H]1C2)C(=O)OCOC(=O)CC(C)(C)C [Example 36, ({[(2-{[(5aR,6aS,7S,10aS)-9-(aminocarbonyl)-4,7-bis(dimethylamino)-1,8,10a,11-tetrahydroxy-10,12-dioxo-5,5a,6,6a,7,10,10a,12-octahydrotetracen-2-yl]amino}-2-oxoethyl)(butyl)amino]carbonyl}oxy)methyl 3,3-dimethylbutanoate]
- MIC (Staph. aureus Smith [1]; Table 8): 8 µg/mL (≈ 10.6 µM)
- MIC (E. coli [2]; [9]): 2 to 8 µg/mL (≈ 2.64 to 10.6 µM)
- MIC (E. coli [2]; [21]): 2 to 8 µg/mL (≈ 2.64 to 10.6 µM)
- MIC (E. coli [2]; [19]): 8 to 32 µg/mL (≈ 10.6 to 42.2 µM)
- MIC (E. coli [2]; [20]): 8 to 32 µg/mL (≈ 10.6 to 42.2 µM)
- MIC (Staph.; [22]): 2 to 4 µg/mL (≈ 2.64 to 5.28 µM)
- MIC (Staph.; [23]): 4 to 16 µg/mL (≈ 5.28 to 21.1 µM)
- MIC (Staph.; [11]): 2 to 4 µg/mL (≈ 2.64 to 5.28 µM)
- MIC (Staph.; [12]): 4 to 16 µg/mL (≈ 5.28 to 21.1 µM)
- ED50 (Staph. aureus Smith [3]; [15]): 0.84 mg/kg
- ED50 (Staph. aureus Smith [3]; [16]): 5.15 mg/kg
- ED50 (Staph. aureus Smith [3]; [17]): 5.15 mg/kg
- ED50 (Staph. aureus Smith [3]; [18]): 0.84 mg/kg
